Earlier results, collected in PubChem BioAssay AID1259409 (Chemical Carcinogenesis Research Information System (CCRIS), 2018).
Where “and” joins values, the source holds several entries; their conditions need not be identical. Equal values may be shown once.

System: rodent chemically induced tumor inhibition, incidence and multiplicity
Assay: CCRIS tumor inhibitor studies
Conditions: Route [Inhibitor]: ORAL

## CSCCC(N)C(=O)O (configuration not stated)
Carcinogen: 3'-METHYL-4-DIMETHYLAMINOAZOBENZENE, 55-80-1, Dose [Inhibitor]: 0.72% IN DIET DAILY FOR 4 WK STARTING AFTER COMPLETION OF THE FIRST 4 WK OF CARCINOGEN TREATMENT (STUDY DURATION: 20 WK), Species: RAT, Target Tissue: Type of Lesion: LIVER: TUMOR, Dose [Carcinogen]: 0.064% IN DIET DAILY FOR 8 WK, 4 WK BEFORE AND ANOTHER 4 WK AFTER AGENT TREATMENT, Promoter: NONE USED
  tumour outcome (control, treated, inhibition, significance): 7/15 (47%), 8/15 (53%), -13%, not calculated and 7/9 (78%), 8/12 (67%), 14%, not calculated
Carcinogen: 4-DIMETHYLAMINOAZOBENZENE, 60-11-7, Dose [Inhibitor]: 0.5% OF DIET DAILY STARTING SIMULTANEOUSLY WITH CARCINOGEN TREATMENT AND CONTINUING THROUGH END OF STUDY (STUDY DURATION, Species: RAT, Strain/Sex: OSBORNE-MENDEL/MALE, Target Tissue: Type of Lesion: LIVER: MALIGNANT TUMOR, Dose [Carcinogen]: 0.06% OF DIET DAILY, Promoter: NONE USED
  tumour outcome (control, treated, inhibition, significance): 48/80 (60%), 18/20 (90%), -50%, not calculated
Carcinogen: 7,12-DIMETHYLBENZ[A]ANTHRACENE, 57-97-6, Dose [Inhibitor]: 0.5% DIET FOR 1 YR STARTING 5 D PRIOR TO CARCINOGEN TREATMENT (STUDY DURATION: 1 YR), Species: RAT, Strain/Sex: ALBINO/FEMALE, Target Tissue: Type of Lesion: HEMATPOIETIC SYSTEM: LEUKEMIA, Dose [Carcinogen]: 1.5 MG 1/WK FOR 3 WK, Promoter: NONE USED
  tumour outcome (control, treated, inhibition, significance): 5/32 (16%), 2/34 (6%), 63%, not significant
Carcinogen: 7,12-DIMETHYLBENZ[A]ANTHRACENE, 57-97-6, Dose [Inhibitor]: 0.5% DIET FOR 1 YR STARTING 5 D PRIOR TO CARCINOGEN TREATMENT (STUDY DURATION: 1 YR), Species: RAT, Strain/Sex: ALBINO/FEMALE, Target Tissue: Type of Lesion: MAMMARY GLAND: ADENOCARCINOMA, Dose [Carcinogen]: 1.5 MG 1/WK FOR 3 WK, Promoter: NONE USED
  tumour outcome (control, treated, inhibition, significance): 22/32 (69%), 6/34 (18%), 74%, p<0.0001
Carcinogen: 7,12-DIMETHYLBENZ[A]ANTHRACENE, 57-97-6, Dose [Inhibitor]: 0.5% DIET FOR 1 YR STARTING 5 D PRIOR TO CARCINOGEN TREATMENT (STUDY DURATION: 1 YR), Species: RAT, Strain/Sex: ALBINO/FEMALE, Target Tissue: Type of Lesion: MAMMARY GLAND: FIBROADENOMA, Dose [Carcinogen]: 1.5 MG 1/WK FOR 3 WK, Promoter: NONE USED
  tumour outcome (control, treated, inhibition, significance): 21/32 (66%), 14/32 (41%), 38%, p 0.025
Carcinogen: 7,12-DIMETHYLBENZ[A]ANTHRACENE, 57-97-6, Dose [Inhibitor]: 0.5% DIET FOR 1 YR STARTING 5 D PRIOR TO CARCINOGEN TREATMENT (STUDY DURATION: 1 YR), Species: RAT, Strain/Sex: ALBINO/FEMALE, Target Tissue: Type of Lesion: ZYMBAL'S GLAND: CARCINOMA, Dose [Carcinogen]: 1.5 MG 1/WK FOR 3 WK, Promoter: NONE USED
  tumour outcome (control, treated, inhibition, significance): 5/32 (16%), 6/34 (18%), -13%, not significant
Carcinogen: DIETHYLNITROSAMINE, 55-18-5, Dose [Inhibitor]: 0, 1.5% IN DIET BEGINNING 1 WK POST CARCINOGEN DOSE (STUDY DURATION: 52 WK), Species: MOUSE, Strain/Sex: C3H/MALE, Target Tissue: Type of Lesion: LIVER: ADENOMA, Dose [Carcinogen]: 150 MG/KG ONCE, Promoter: NONE USED
  tumour outcome (control, treated, inhibition, significance): 14%, 9%, 36%, not calculated
Carcinogen: DIETHYLNITROSAMINE, 55-18-5, Dose [Inhibitor]: 0, 1.5% IN DIET BEGINNING 1 WK POST CARCINOGEN DOSE (STUDY DURATION: 52 WK), Species: MOUSE, Strain/Sex: C3H/MALE, Target Tissue: Type of Lesion: LIVER: ADENOMA, Dose [Carcinogen]: 150 MG/KG ONCE, Promoter: PHENOBARBITAL, 50-06-6
  tumour outcome (control, treated, inhibition, significance): 16%, 22%, -38%, not calculated
Carcinogen: DIETHYLNITROSAMINE, 55-18-5, Dose [Inhibitor]: 0, 1.5% IN DIET BEGINNING 1 WK POST CARCINOGEN DOSE (STUDY DURATION: 52 WK), Species: MOUSE, Strain/Sex: C3H/MALE, Target Tissue: Type of Lesion: LIVER: CARCINOMA, Dose [Carcinogen]: 150 MG/KG ONCE, Promoter: NONE USED
  tumour outcome (control, treated, inhibition, significance): 71%, 77%, -8%, not calculated
Carcinogen: DIETHYLNITROSAMINE, 55-18-5, Dose [Inhibitor]: 0, 1.5% IN DIET BEGINNING 1 WK POST CARCINOGEN DOSE (STUDY DURATION: 52 WK), Species: MOUSE, Strain/Sex: C3H/MALE, Target Tissue: Type of Lesion: LIVER: CARCINOMA, Dose [Carcinogen]: 150 MG/KG ONCE, Promoter: PHENOBARBITAL, 50-06-6
  tumour outcome (control, treated, inhibition, significance): 74%, 33%, 55%, p<0.01
Carcinogen: DIETHYLNITROSAMINE, 55-18-5, Dose [Inhibitor]: 0, 1.5% IN DIET BEGINNING 1 WK POST CARCINOGEN DOSE (STUDY DURATION: 52 WK), Species: MOUSE, Strain/Sex: C3H/MALE, Target Tissue: Type of Lesion: LUNG: ADENOMA OR ADENOCARCINOMA, Dose [Carcinogen]: 150 MG/KG ONCE, Promoter: NONE USED
  tumour outcome (control, treated, inhibition, significance): 6/14 (43%), 12/22 (55%), -28%, not calculated
Carcinogen: DIETHYLNITROSAMINE, 55-18-5, Dose [Inhibitor]: 0, 1.5% IN DIET BEGINNING 1 WK POST CARCINOGEN DOSE (STUDY DURATION: 52 WK), Species: MOUSE, Strain/Sex: C3H/MALE, Target Tissue: Type of Lesion: LUNG: ADENOMA OR ADENOCARCINOMA, Dose [Carcinogen]: 150 MG/KG ONCE, Promoter: PHENOBARBITAL, 50-06-6
  tumour outcome (control, treated, inhibition, significance): 7/19 (37%), 0/9 (0%), 100%, not calculated
Carcinogen: ETHIONINE, 13073-35-3, Dose [Inhibitor]: 1.35 MMOL/100 G DIET DAILY FOR 4.5 MO ADMINISTERED SIMULTANEOUSLY WITH CARCINOGEN FOLLOWED BY NORMAL STOCK DIET FOR REMA, Species: RAT, Strain/Sex: WISTAR/MALE, Target Tissue: Type of Lesion: LIVER: CARCINOMA, Dose [Carcinogen]: 0.25% OF DIET DAILY FOR 8 MO, Promoter: NONE USED
  tumour outcome (control, treated, inhibition, significance): 9/9 (100%), 2/8 (25%), 75%, not calculated
Carcinogen: ETHIONINE, 13073-35-3, Dose [Inhibitor]: 2 MMOL/100 G DIET DAILY FOR 8 MO ADMINISTERED SIMULTANEOUSLY WITH CARCINOGEN FOLLOWED BY 2 MO ON NORMAL STOCK DIET (STUD, Species: RAT, Strain/Sex: WISTAR/MALE, FEMALE, Target Tissue: Type of Lesion: LIVER: CARCINOMA, Dose [Carcinogen]: 0.25% OF DIET DAILY FOR 8 MO, Promoter: NONE USED
  tumour outcome (control, treated, inhibition, significance): 9/10 (90%), 5/10 (50%), 44%, not calculated
Carcinogen: ETHIONINE, 13073-35-3, Dose [Inhibitor]: 4 MMOL/100 G DIET DAILY FOR 4.5 MO ADMINISTERED SIMULTANEOUSLY WITH CARCINOGEN FOLLOWED BY NORMAL STOCK DIET FOR REMAIND, Species: RAT, Strain/Sex: WISTAR/MALE, Target Tissue: Type of Lesion: LIVER: CARCINOMA, Dose [Carcinogen]: 0.25% OF DIET DAILY FOR 8 MO, Promoter: NONE USED
  tumour outcome (control, treated, inhibition, significance): 9/9 (100%), 0/10 (0%), 100%, not calculated
Carcinogen: ETHIONINE, 13073-35-3, Dose [Inhibitor]: 4 MMOL/100 G DIET DAILY FOR 8 MO ADMINISTERED SIMULTANEOUSLY WITH CARCINOGEN FOLLOWED BY 4 MO ON BASAL DIET (STUDY DURAT, Species: RAT, Strain/Sex: WISTAR/MALE, Target Tissue: Type of Lesion: LIVER: CARCINOMA, Dose [Carcinogen]: 0.25% OF DIET DAILY FOR 12 MO, Promoter: NONE USED
  tumour outcome (control, treated, inhibition, significance): 8/8 (100%), 0/9 (0%), 100%, not calculated
Carcinogen: ETHIONINE, 13073-35-3, Dose [Inhibitor]: 5.4 MMOL/100 G DIET DAILY FOR 4.5 MO ADMINISTERED SIMULTANEOUSLY WITH CARCINOGEN FOLLOWED BY NORMAL STOCK DIET FOR REMAI, Species: RAT, Strain/Sex: WISTAR/MALE, Target Tissue: Type of Lesion: LIVER: CARCINOMA, Dose [Carcinogen]: 0.25% OF DIET DAILY FOR 8 MO, Promoter: NONE USED
  tumour outcome (control, treated, inhibition, significance): 9/9 (100%), 0/10 (0%), 100%, not calculated
Carcinogen: ETHIONINE, 13073-35-3, Dose [Inhibitor]: 5.4 MMOL/100 G DIET DAILY FOR 8 MO ADMINISTERED SIMULTANEOUSLY WITH CARCINOGEN FOLLOWED BY 4 MO ON BASAL DIET (STUDY DUR, Species: RAT, Strain/Sex: WISTAR/MALE, Target Tissue: Type of Lesion: LIVER: CARCINOMA, Dose [Carcinogen]: 0.25% OF DIET DAILY FOR 12 MO, Promoter: NONE USED
  tumour outcome (control, treated, inhibition, significance): 8/8 (100%), 0/9 (0%), 100%, not calculated
Carcinogen: N-METHYL-N-NITROSOUREA, 684-93-5, Dose [Inhibitor]: 0.5% DIET FOR 1 YR STARTING 5 D PRIOR TO CARCINOGEN TREATMENT (STUDY DURATION: 1 YR), Species: RAT, Strain/Sex: ALBINO/FEMALE, Target Tissue: Type of Lesion: HEMATOPOIETIC SYSTEM: LEUKEMIA, Dose [Carcinogen]: 50 MG/KG 1/WK FOR 2 WK, Promoter: NONE USED
  tumour outcome (control, treated, inhibition, significance): 9/28 (32%), 5/29 (17%), 47%, not significant
Carcinogen: N-METHYL-N-NITROSOUREA, 684-93-5, Dose [Inhibitor]: 0.5% DIET FOR 1 YR STARTING 5 D PRIOR TO CARCINOGEN TREATMENT (STUDY DURATION: 1 YR), Species: RAT, Strain/Sex: ALBINO/FEMALE, Target Tissue: Type of Lesion: KIDNEY: MESENCHYMAL TUMOR, Dose [Carcinogen]: 50 MG/KG 1/WK FOR 2 WK, Promoter: NONE USED
  tumour outcome (control, treated, inhibition, significance): 15/28 (54%), 17/29 (59%), -9%, not significant
Carcinogen: N-METHYL-N-NITROSOUREA, 684-93-5, Dose [Inhibitor]: 0.5% DIET FOR 1 YR STARTING 5 D PRIOR TO CARCINOGEN TREATMENT (STUDY DURATION: 1 YR), Species: RAT, Strain/Sex: ALBINO/FEMALE, Target Tissue: Type of Lesion: MAMMARY GLAND: ADENOCARCINOMA, Dose [Carcinogen]: 50 MG/KG 1/WK FOR 2 WK, Promoter: NONE USED
  tumour outcome (control, treated, inhibition, significance): 9/28 (32%), 4/29 (14%), 56%, p 0.05
Carcinogen: N-METHYL-N-NITROSOUREA, 684-93-5, Dose [Inhibitor]: 0.5% DIET FOR 1 YR STARTING 5 D PRIOR TO CARCINOGEN TREATMENT (STUDY DURATION: 1 YR), Species: RAT, Strain/Sex: ALBINO/FEMALE, Target Tissue: Type of Lesion: MAMMARY GLAND: FIBROADENOMA, Dose [Carcinogen]: 50 MG/KG 1/WK FOR 2 WK, Promoter: NONE USED
  tumour outcome (control, treated, inhibition, significance): 5/28 (18%), 6/29 (21%), -17%, not significant
